# Test results as given in patent publication US20250295795A1, “PEPTIDE” (priority 2021, published 2025).
# Entries after “also recorded” stand apart in the source; their conditions may differ. No end group written: not given here.
# Columns and labels:
# CHO cells = assay: Live cell confocal microscopy: cellular uptake and intracellular distribution of Tat conjugates in CHO cells; format: cell-based, Chinese hamster; conditions: 60 min, post-wash
# Method: (§1) The cellular uptake and intracellular distribution of Tat-trimers and monomeric controls was investigated by performing live cell confocal microscopy of HeLa (human, cervical cancer) and CHO (Chinese hamster, epithelial) cells incubated with Tat conjugates (1 μM) in serum-free DMEM (60 min). Following washing, images were acquired using a Zeiss 780 confocal microscope fitted with an incubation chamber (FIG. 2). In accordance with observations that free Tat in the cytosol readily enters the nucleus and strongly binds to nucleoli,^29 homogenous staining of cytoplasm and nucleoli were considered as indicative of cells having accumulated free conjugate, not confined to endosomes, for quantification purposes. […] The uptake and intracellular distribution of tri-Tat A is similar in live Hela and CHO cells (FIG. 2b,d,e).
# (§2) HeLa and CHO cells were cultured in DMEM supplemented with 10% FBS and penicillin/streptomycin. For post-wash experiments, Tat conjugate was added to the cells in serum free medium, cells incubated at 37° C. in an atmosphere of 5% CO2, culture medium removed at the desired time point, cells washed and transferred to the microscope for imaging. For time course or pre-wash experiments, cells were transferred to the microscope (incubation chamber at 37° C., 5% CO2) and Tat conjugate added directly to cell medium and cells imaged at desired time points. Co-delivery experiments were conducted by adding peptide trimer immediately followed by cargo into serum free medium. Samples were visualised using a Zeiss LSM 780 inverted confocal microscope fitted with a XLmultiS1 incubation chamber and Plan-Apochromat 63×/1.40 Oil DIC M27 objective. Images were analysed using ImageJ software. Digital adjustments and image processing are consistent throughout the manuscript, unless otherwise stated in the figure legend. Statistical analysis was carried out using GraphPad Prism 7 software and all data used for statistical analysis consists of measurements from distinct cells. Where applicable a parametric, unpaired, two-tailed t-test was used for statistical testing.
# HeLa cells [1] = assay: Live cell confocal microscopy: cellular uptake and intracellular distribution of Tat conjugates in HeLa cells; format: cell-based, human; conditions: HeLa cells, 60 min, post-wash
# Method: as §1, with “[…]).” for “epithelial) cells incubated with Tat conjugates (1 μM) in serum-free DMEM (60 min).”
# Following washing, images were acquired using a Zeiss 780 confocal microscope fitted with an incubation chamber. In accordance with observations that free Tat in the cytosol readily enters the nucleus and strongly binds to nucleoli,^29 homogenous staining of cytoplasm and nucleoli were considered as indicative of cells having accumulated free conjugate, not confined to endosomes, for quantification purposes. The results were compared to tri-Tat A (8) and tri-cTat B (17).
# as §2
# HeLa cells [2] = assay: Membrane integrity / porosity: propidium iodide uptake after trimer treatment; format: cell-based, human; conditions: 1 μM trimer; 40 μM PI added 20 min after trimer
# Method: To assess membrane integrity, 40 μM propidium iodide (PI; a cell impermeable dye), was added to Hela cells 20 min after the addition of the peptide trimer.
# HeLa cells [3] = assay: Time course of uptake in Hela cells (continuous live cell confocal microscopy, ROI profile analysis); format: cell-based, human; conditions: 1 μM
# Method: To better understand the mechanism by which tri-Tat A and tri-cTat B enter the cytosol and the nucleus, we investigated the uptake kinetics of the conjugates during the first 15 min after their addition to Hela cells using confocal live cell microscopy. Tri-Tat A (FIG. 3a) or tri-cTat B (FIG. 3b) (1 μM) were added to the cells and images acquired from 1 min to 15 min at 60 sec intervals. The two trimers show distinct uptake patters into Hela cells; to better understand the difference in uptake kinetics, we drew cross sectional profile plots through representative cells treated with tri-Tat A (FIG. 3c) and tri-cTat B (FIG. 3d). […] To investigate whether findings in individual cells also apply to larger populations, we extended the plot profile analysis by designating regions of interest (ROI) corresponding to plasma membrane, cytosol (excluding endosomes), nucleus, and nucleoli along the cross section, using information from brightfield images.^30 Average fluorescence intensities for each ROI, at each time point, in six cells per treatment group were calculated and plotted in FIGS. 3e-3h.
# as §2
# [4] = MTT assay of metabolic activity (cell viability); format: cell-based; conditions: human, HeLa cells, 1 μM for 60 min
# Method: Toxicity is a concern with potent intracellular delivery agents. We used an MTT assay to measure the metabolic activity of Hela cells treated with 1 μM tri-Tat A or tri-cTat B for 60 min (FIG. 4d). […] Tri-Tat A is slightly more toxic, which is consistent with the observation that the trimer forms membrane pores (cells 84.4% viable, 4 h post-treatment; 80.2% viable, 3 days post-treatment). The favourable uptake mechanism and low toxicity of tri-cTat B lead us to investigate this agent for its potential to transport biomacromolecular cargos into cells.
# HeLa cells [5] = assay: Co-delivery of antibodies, antibody fragments and RFP into live Hela cells; format: cell-based, human; conditions: 1 μM peptide
# Text: Access to the cytosol by mechanisms that are independent of transmembrane pore formation constitutes a preferred method of co-delivery due to reduced toxicity to the cell. […] Successful delivery of Fab is indicated by homogenous distribution of AF647 signal in the cytosol and nucleus and is only observed in cells which have been transduced with tri-cTat B (FIG. 13). Time course of Fab uptake by tri-cTat B (FIG. 5c) follows a similar pattern as tri-cTat B alone (FIG. 3b, d). Tri-cTat B and Fab form large vesicle-like bodies that appear to release their contents into the cytosol of the cell; unambiguous cytosolic staining by Fab is observed from 23 min. Interaction between peptide trimer and biomacromolecule, mediated by charge-charge interactions is essential for the accumulation of both in endosomes and subsequent release and delivery of cargo into cells. Delivery of relatively β-sheet rich, neutrally charged recombinant RFP was unsuccessful (FIG. 16) due to a lack of association between tri-cTat B and cargo (FIG. 17). On the other hand, interaction diminishes the efficacy of the peptide trimer due to charge masking, emphasising the need to maintain an appropriate peptide to cargo ratio for a given macromolecule. Experiments to explore the efficacy of tri-cTat B in the presence of serum supplemented medium underline this principle; while tri-cTat B continues to function in the presence of serum, the number of transduced cells diminishes (42% (serum) vs. 61% (serum free)), but can be restored by increasing tri-cTat B concentration to 2 μM (79% (serum); FIG. 15). […] This is likely due to the larger size of antibodies and also to the observation that antibodies have a greater tendency to aggregate in the presence of tri-cTat B compared to Fab fragments. […] Finally, we investigated whether it is possible to deliver functional antibodies and antibody fragments into the cytosol and nuclei of cells. β-actin was chosen as a proof-of-principle protein because of its abundance in the cell and formation of distinctive subcellular filaments. To clearly identify actin filaments, Hela cells were transfected with red fluorescent protein fused to actin (actin-RFP) before being incubated with β-actin antibody (mouse IgG2b) or β-actin Fab fragment (mouse) conjugated to AF647 plus tri-cTat B for 30 min. After washing, cells were left for 60 min to allow IgG/Fab to bind to actin filaments. […] To enable objective quantification of co-localization between β-actin filaments and IgG/Fab fragment (white arrows), a co-localization threshold algorithm was used in selected regions of interest (ROI). Pearson's and Manders' coefficients were obtained under Costes' automatic threshold^32 and the co-localized pixels are shown as a mask of yellow pixels of constant intensity (co-localization panels). The significance of the co-localization parameters (Pearson's and Manders' coefficients) was evaluated using the confined displacement algorithm (CDA).
# as §2, with “Statistical analysis was carried out using GraphPad Prism 7 software and all data used for statistical analysis consists of measurements from distinct cells. Where applicable a parametric, unpaired, two-tailed t-test was used for statistical testing.” left out
compound,measurement,setting,value
"tri-Tat B: AF488-labelled trimer of linear Tat (49-57) peptide on alkyne functionalized scaffold B (RKKRRQRRR; also: trimer on alkyne functionalized scaffold B, AF488 label, place not given here; UniProt P04608 49-57, looked up, fragment)",cellular uptake and intracellular distribution,"CHO cells; 1 μM, serum-free DMEM",no evidence of cytosolic uptake or nucleolar staining; also recorded: only taken up into endosomes
same,cellular uptake and intracellular distribution,"HeLa cells [1]; 1 μM, serum-free DMEM",no evidence of cytosolic uptake or nucleolar staining; also recorded: only taken up into endosomes
N=C(N)NCCC[C@H](NC(=O)[C@H](CCCNC(=N)N)NC(=O)[C@H](CCCNC(=N)N)NC(=O)[C@H](CCC(N)=O)NC(=O)[C@H](CCCNC(=N)N)NC(=O)[C@H](CCCNC(=N)N)NC(=O)[C@H](CCCCN)NC(=O)[C@H](CCCCN)NC(=O)[C@H](CCCNC(=N)N)NC(=O)CCCc1cn(CC(Cn2cc(CCCC(=O)N[C@@H](CCCNC(=N)N)C(=O)N[C@@H](CCCCN)C(=O)N[C@@H](CCCCN)C(=O)N[C@@H](CCCNC(=N)N)C(=O)N[C@@H](CCCNC(=N)N)C(=O)N[C@@H](CCC(N)=O)C(=O)N[C@@H](CCCNC(=N)N)C(=O)N[C@@H](CCCNC(=N)N)C(=O)N[C@@H](CCCNC(=N)N)C(N)=O)nn2)(Cn2cc(CCCC(=O)N[C@@H](CCCNC(=N)N)C(=O)N[C@@H](CCCCN)C(=O)N[C@@H](CCCCN)C(=O)N[C@@H](CCCNC(=N)N)C(=O)N[C@@H](CCCNC(=N)N)C(=O)N[C@@H](CCC(N)=O)C(=O)N[C@@H](CCCNC(=N)N)C(=O)N[C@@H](CCCNC(=N)N)C(=O)N[C@@H](CCCNC(=N)N)C(N)=O)nn2)Cn2cc(CNC(=O)c3ccc4c(c3)C(=O)OC43c4ccc(N)c(S(=O)(=O)O)c4Oc4c3ccc(N)c4S(=O)(=O)O)nn2)nn1)C(N)=O (some centres unmarked) [tri-Tat A],propidium iodide (PI) uptake / pore formation,HeLa cells [2],significantly higher; also recorded: co-stain with PI
same,cellular uptake and intracellular distribution,"CHO cells; 1 μM, serum-free DMEM",homogenous cytosolic uptake and nucleolar staining; also recorded: taken up into the cytosol and nucleoli
same,time after which cytosolic signal increases rapidly,HeLa cells [3],~12 min
same,cytosolic signal relative to tri-cTat B (factor),"HeLa cells [3]; at 15 min, p<0.05",2
same,association with plasma membrane (profile plots),HeLa cells [3]; representative cells,initial strong association
same,association with the plasma membrane relative to tri-cTat B,"HeLa cells [3]; t=1 to 15 min, p<0.05",approximately three
same,"viability at 4 h, 1 µM",[4]; 4 h post-treatment,84.4%
same,"viability at 72 h, 1 µM",[4]; 3 days post-treatment,80.2%
same,cellular uptake and intracellular distribution,"HeLa cells [1]; 1 μM, serum-free DMEM",homogenous cytosolic uptake and nucleolar staining; also recorded: taken up into the cytosol and nucleoli
"mono-Tat: monomeric control: linear Tat (49-57) peptide labelled with AF488 (RKKRRQRRR; also: AF488 label, place not given here; UniProt P04608 49-57, looked up, fragment)",cellular uptake and intracellular distribution,"CHO cells; 1 μM, serum-free DMEM",not taken up
same,cellular uptake and intracellular distribution,CHO cells; 10 μM,no cytosolic uptake or nucleolar staining; also recorded: taken up only into endosomes
same,cellular uptake of Fab in the presence of the peptide,"HeLa cells [5]; Fab-AF647, 30 min",no cellular uptake
same,cellular uptake of IgG in the presence of the peptide,"HeLa cells [5]; IgG-AF647, 45 min",no cellular uptake
same,cellular uptake and intracellular distribution,"HeLa cells [1]; 1 μM, serum-free DMEM",not taken up
same,cellular uptake and intracellular distribution,HeLa cells [1]; 10 μM,no cytosolic uptake or nucleolar staining; also recorded: taken up only into endosomes
